Experimental data from patent publication US20160008490A1, “METAL CHELATE COMPOUNDS FOR BINDING TO THE PLATELET SPECIFIC GLYCOPROTEIN IIB/IIIA” (BAYER PHARMA AKTIENGESELLSCHAFT, priority 2013, published 2016).

What was measured:
[1] = Relaxivity measurements at 1.41 T in water and plasma; format: physicochemical; conditions: relaxivity normalized to Gd, 37° C.
Experimental: Relaxivity measurements at 1.41 T were performed using a MiniSpec mq60 spectrometer (Bruker Analytik, Karlsruhe) operating at a resonance frequency of 60 MHz and a temperature of 37° C. The T1 relaxation times were determined using the standard inversion recovery method. The T2 measurements were done by using the Carr-Purcell-Meiboom-Gill (CPMG) pulse sequence. All measurements were done at concentrations between 0.05 mM and 1 mM of Gd in water and plasma.
The relaxivities ri (where i=1, 2) were calculated on the basis of the measured relaxation rates Ri in water and plasma:
where Ri(0) represent the relaxation rate of the respective solvent and CGd the concentration of the compound normalized to the Gadolium.

[2] = system: in vitro platelet-rich thrombi; assay: Magnetic resonance imaging of in vitro platelet-rich thrombi; format: cell-based, human; conditions: 10 μmol substance/L, 20 min incubation, washed three times with plasma, 1.5 T, versus control thrombus without contrast agent
Experimental: Magnetic resonance imaging of in vitro platelet-rich thrombi and incubation solution (example 8) using a 3D turbo spin echo sequence (1.5 T, Siemens Avanto, small extremity coil, TR 1050 ms, TE 9.1 ms, 0.5×0.5×0.6 mm^3). In FIG. 2a an in vitro control thrombus without the addition of a contrast agent is shown. The signal intensity of the control thrombus is slightly higher than the surrounding medium but clearly lower than the signal of the in vitro thrombus which was incubated with example 8 as depicted in FIG. 2b. In FIG. 2c the incubation solution with a final concentration of 10 μmol substance/L of example 8 in human plasma is represented. The signal intensity is higher than the surrounding plasma solutions in the in vitro platelet-rich thrombi 2a and 2b.
The in vitro thrombus in FIG. 2b is incubated with the solution which is depicted in FIG. 2c. After 20 min incubation period the thrombi was washed three times with plasma solution.
The MRI imaging experiments were done with platelet-rich plasma. The preparation of platelet-rich plasma using fresh blood is described in L K Jennings et. al. Blood 1986 1, 173-179 but modified with regard to centrifugation procedure. Briefly, fresh blood was taken from a volunteer using 10 mL citrate-tubes (Sarstedt S-Monovette 02.1067.001, 10 mL, Citrate 3.13%). The 10 mL citrate-tubes were carefully inverted 10 times to mix blood and anticoagulant. […]

With `CC(C(=O)NCC(=O)NC[C@H](NC(=O)CNC(=O)C(C)N1CCN(CC(=O)O)CCN(CC(=O)O)CCN(CC(=O)O)CC1)C(=O)NC[C@H](NC(=O)[C@H](CNC(=O)CNC(=O)C(C)N1CCN(CC(=O)O)CCN(CC(=O)O)CCN(CC(=O)O)CC1)NC(=O)CNC(=O)C(C)N1CCN(CC(=O)O)CCN(CC(=O)O)CCN(CC(=O)O)CC1)C(=O)NCCCCc1cccc(C#Cc2cncc([C@H](CC(=O)O)NC(=O)[C@@H]3CCCN(C(=O)CCC4CCNCC4)C3)c2)c1)N1CCN(CC(=O)O)CCN(CC(=O)O)CCN(CC(=O)O)CC1` (stereo partly drawn) [Example 8] the r1 plasma ([1]; plasma) was 14.5 L/mmol/s, the r1 water ([1]; water) was 12.6 L/mmol/s and the “signal intensity of incubated in vitro thrombus (T1-weighted 3D TSE MRI)” value [2] was “clearly higher signal than the control thrombi”.
